The target in this assay is T1, Human autotaxin enzyme (Homo sapiens, UniProt Q13822).
T1 construct: purchased R&D System
Put plainly: Evaluation of autotaxin inhibitor, Method C (18:0 Lyso PC substrate, choline assay, Resorufin fluorescence). The conditions noted are these: Method C (Test Example 3), read-out: Inhibitory activity (enzyme inhibitory activity, IC50). The class given is biochemical. The protocol: Test Example 3 (Method C) Evaluation of Autotaxin Inhibitor
Solution B containing 100 mM Tris-HCl buffer (pH7.5), 150 mM NaCl, 5 mM MgCl2, and 0.05% Triton X-100 was prepared. Human autotaxin enzyme (purchased from R&D System) was diluted with Solution B, and 2.5 μl of which was added to a solution of test compound in DMSO. Furthermore, 2.5 μl of 200 μM 18:0 Lyso PC (purchased from Avanti Polar Lipids) in Solution B was added and allowed to react at room temperature for 2 hours. After completion of the reaction, 15 μl of the coline assay reagent (100 mM Tris-HCl buffer (pH7.5), 5 mM MgCl2, 77 μg/ml coline oxidase, 10 μg/ml peroxydase, 25 μM 10-acetyl-3,7-dihydroxyphenoxazine, and excess autotaxin inhibitor) was added and allowed to react at room temperature for 20 minutes. The fluorescent dye Resorufin, which was produced by the reaction, was detected. The fluorescence was detected using ViewLux (PerkinElmer, Inc.) with a excitation wavelength of 531 nm and a fluorescence wavelength of 598 nm.
The percent inhibition of the test compound was calculated by assuming the sample with no test compound as 0% inhibition and the sample with no enzyme as 100% inhibition, and the percent inhibitions at different concentrations of the test compound were plotted to obtain a concentration-dependent curve.
In the case of `CCCCC1CN(CC(=O)NCCO)C(=O)c2cc(-c3ccc(Cl)cc3)nn21` (stereo not shown) [Compound I-0218], the half-inhibitory concentration (IC50) lay in the range of 100 to 1000 nM.

Consider `CCCCCC1CN(CC(=O)N2CCCC(C)C2)C(=O)c2cc(-c3ccc(Cl)cc3)nn21` (stereo not shown) [Compound I-0115], for which the concentration for half-maximal inhibition (IC50) lay within 100 to 1000 nM.

Take `N#Cc1ccc(CN2CC3CCCCCC(=O)Nc4cc(Cl)ccc4-c4cc(n3n4)C2=O)cc1` (stereo not shown) [Compound I-0355]: the IC50 is under 10 nM.

Regarding `CCCCCC1CN(CC(=O)Nc2ccc(CCC(=O)O)cc2)C(=O)c2cc(-c3ccc(Cl)cc3)nn21` (stereo not shown) [Compound I-0058], the IC50 lay in the range of 100 to 1000 nM.

As for `C[C@H]1CN(CC(=O)N(C)CCC#N)C(=O)c2cc(-c3ccc(C#N)cc3NC(=O)C3CC3)nn21` [Compound I-0350], the IC50 was under 10 nM.

As for `CCCCC1CN(Cc2ccc(C#N)cc2)C(=O)c2cc(-c3ccc(Cl)cc3NC(=O)NC)nn21` (stereo not shown) [Compound I-0309], the half-maximal inhibitory concentration (IC50) is 100 to 1000 nM.

`CC(=O)NC1=C(c2cc3n(n2)[C@@H](C)CN(Cc2ccc(C#N)cc2)C3=O)CCC(C(F)(F)F)C1` (stereo partly shown) [Compound I-0366]: the IC50 was in the range of 10 to 100 nM.

In the case of `CCCCC1CN(CC(=O)NCC2(CO)COC2)C(=O)c2cc(-c3ccc(Cl)cc3)nn21` (stereo not shown) [Compound I-0237], the concentration for half-maximal inhibition (IC50) lay in the range of 100 to 1000 nM.

For the molecule `CCCCC1CN(CCOC)C(=O)c2cc(-c3ccc(Cl)cc3)nn21` (stereo not shown) [Compound I-0271], the half-inhibitory concentration (IC50) was in the range of 100 to 1000 nM.

With `CCCOCC1CN(CC(=O)N2CCC(C(=O)O)CC2)C(=O)c2cc(-c3ccc(Cl)cc3)nn21` (stereo not shown) [Compound I-0319], the half-maximal inhibitory concentration (IC50) was under 10 nM.

`CCCCCC1CN(CC(=O)NCCCC)C(=O)c2cc(-c3ccc(Cl)cc3)nn21` (stereo not shown) [Compound I-0088]: the IC50 was 100 to 1000 nM.

Turning to `CCCCCC1CN(CC(=O)NCCCCCC(=O)O)C(=O)c2cc(-c3ccc(Cl)cc3)nn21` (stereo not shown) [Compound I-0046], the IC50 lay in the range of 100 to 1000 nM.

Regarding `CCCCCC1CN(CC(=O)NC2CCC[C@@H]2C(=O)OCC)C(=O)c2cc(-c3ccc(Cl)cc3)nn21` (stereo partly shown) [Compound I-0051], the IC50 is 100 to 1000 nM.

For the molecule `C[C@H]1CN(Cc2ccccc2OCCCN(C)C)C(=O)c2cc(-c3ccc(Cl)cc3)nn21` [Compound I-0168], the IC50 is at least 1000 nM.

For the molecule `CCCCC1CN(Cc2ccc(C#N)cc2)C(=O)c2cc(-c3ccc(Cl)cn3)nn21` (stereo not shown) [Compound I-0277], the concentration for half-maximal inhibition (IC50) lay within 100 to 1000 nM.

`CC(=O)Nc1cc(Cl)cc(CO)c1-c1cc2n(n1)[C@@H](C)CN(Cc1ccc(C#N)cc1)C2=O` [Compound I-0347]: the concentration for half-maximal inhibition (IC50) was in the range of 10 to 100 nM.

`CCCCCC1CN(CC(=O)NC2CCC(C(=O)O)CC2)C(=O)c2cc(-c3ccc(Cl)cc3)nn21` (stereo not shown) [Compound I-0060]: the concentration for half-maximal inhibition (IC50) is 100 to 1000 nM.

Take `CCCCCC1CN(CC(=O)N2CCC(C(=O)O)CC2)C(=O)c2cc(-c3ccc(Cl)cc3)nn21` (stereo not shown) [Compound I-0007]: the concentration for half-maximal inhibition (IC50) was under 10 nM.

Take `CCCCCC1CN(CC(=O)N2CCCC(O)C2)C(=O)c2cc(-c3ccc(Cl)cc3)nn21` (stereo not shown) [Compound I-0092]: the half-inhibitory concentration (IC50) is 100 to 1000 nM.

As to `CCCCC1CN(Cc2ccc(C#N)cc2)C(=O)c2cc(-c3ccc(Cl)cc3CC#N)nn21` (stereo not shown) [Compound I-0293], the half-inhibitory concentration (IC50) fell in the range of 100 to 1000 nM.

With `CCCCC1CN(Cc2ccccn2)C(=O)c2cc(-c3ccc(Cl)cc3)nn21` (stereo not shown) [Compound I-0256], the IC50 fell in the range of 100 to 1000 nM.

In the case of `CCCCC1CN(CC(=O)N(C)CC(O)c2ccccc2)C(=O)c2cc(-c3ccc(Cl)cc3)nn21` (stereo not shown) [Compound I-0228], the IC50 is 100 to 1000 nM.

`O=C1NCC(COCc2ccccc2)n2nc(-c3ccc(Cl)cc3)cc21` (stereo not shown) [Compound I-0024]: the half-inhibitory concentration (IC50) is at least 1000 nM.

Consider `O=C(O)c1cccc(CN2CC(COCc3ccccc3)n3nc(-c4ccc(Cl)cc4)cc3C2=O)c1` (stereo not shown) [Compound I-0173], for which the IC50 is 100 to 1000 nM.

Turning to `CCCCCC1CN(CC(=O)N2CCCC[C@@H]2C)C(=O)c2cc(-c3ccc(Cl)cc3)nn21` (stereo partly shown) [Compound I-0082], the IC50 lay within 10 to 100 nM.

For `CCCCC1CN(CCn2cccc2)C(=O)c2cc(-c3ccc(Cl)cc3)nn21` (stereo not shown) [Compound I-0267], the half-maximal inhibitory concentration (IC50) lay within 100 to 1000 nM.

On to `C[C@H]1CN(Cc2cccc(OCCCN(C)C)c2)C(=O)c2cc(-c3ccc(Cl)cc3)nn21` [Compound I-0166], for which the half-maximal inhibitory concentration (IC50) was at least 1000 nM.

Take `CCCCC1CN(CC(=O)OC(C)(C)C)C(=O)c2cc(-c3ccc(Cl)cc3)nn21` (stereo not shown) [Compound I-0283]: the concentration for half-maximal inhibition (IC50) lay within 100 to 1000 nM.

Take `CCCCC1CN(CC(=O)N2CCC(C(=O)OC)CC2)C(=O)c2cc(-c3ccc(Cl)cc3)nn21` (stereo not shown) [Compound I-0279]: the IC50 was 10 to 100 nM.

In the case of `CCCCC1CN(CC(=O)NCc2cc(=O)[nH]o2)C(=O)c2cc(-c3ccc(Cl)cc3)nn21` (stereo not shown) [Compound I-0233], the concentration for half-maximal inhibition (IC50) fell in the range of 10 to 100 nM.

In the case of `CCCCC1CN(Cc2ccc(C#N)cc2)C(=O)c2cc(-c3ccc(OC)cc3)nn21` (stereo not shown) [Compound I-0205], the IC50 was in the range of 100 to 1000 nM.

For the molecule `CCCCC[C@@H]1CN(CC(=O)N2CCC(C(=O)O)CC2)C(=O)c2cc(-c3ccc(Cl)cc3)nn21` [Compound I-0312], the IC50 fell in the range of 10 to 100 nM.

As to `CCCCCC1CN(Cc2cccc(NC(C)=O)c2)C(=O)c2cc(-c3ccc(Cl)cc3)nn21` (stereo not shown) [Compound I-0142], the IC50 was 100 to 1000 nM.

As to `CCCCCC1CN(CC(=O)Nc2ccncc2)C(=O)c2cc(-c3ccc(Cl)cc3)nn21` (stereo not shown) [Compound I-0084], the IC50 was at least 1000 nM.

As to `CC(=O)Nc1cc(C#N)cc(CO)c1-c1cc2n(n1)[C@@H](C)CN(Cc1ccc(C#N)cc1)C2=O` [Compound I-0348], the half-maximal inhibitory concentration (IC50) was in the range of 10 to 100 nM.

As for `CCCCC1CN(CC(=O)NCCOCCO)C(=O)c2cc(-c3ccc(Cl)cc3)nn21` (stereo not shown) [Compound I-0212], the half-inhibitory concentration (IC50) fell in the range of 100 to 1000 nM.

With `CCNc1cc(Cl)cc(CO)c1-c1cc2n(n1)[C@@H](C)CN(Cc1ccc(C#N)cc1)C2=O` [Compound I-0356], the IC50 is under 10 nM.

As to `O=C(O)c1cccc(CN2CC(COCC(F)(F)F)n3nc(-c4ccc(Cl)cc4)cc3C2=O)c1` (stereo not shown) [Compound I-0311], the IC50 is under 10 nM.

On to `C[C@H]1CN(Cc2ccc(CC(=O)O)cc2)C(=O)c2cc(-c3ccc(Cl)cc3)nn21` [Compound I-0170], for which the 50% inhibitory concentration (IC50) was 10 to 100 nM.

For the molecule `CCCCC1CN(CC(=O)N2CCC[C@@H]2C)C(=O)c2cc(-c3ccc(Cl)cc3)nn21` (stereo partly shown) [Compound I-0246], the IC50 lay in the range of 10 to 100 nM.

With `CCCCC1CN(c2ccc(CCC(=O)O)cc2)C(=O)c2cc(-c3ccc(Cl)cc3)nn21` (stereo not shown) [Compound I-0287], the concentration for half-maximal inhibition (IC50) was at least 1000 nM.

On to `CCCCCC1CN(CC(=O)N2CCCC(CC(=O)O)C2)C(=O)c2cc(-c3ccc(Cl)cc3)nn21` (stereo not shown) [Compound I-0053], for which the IC50 lay within 10 to 100 nM.

Consider `CCCCCC1CN(CC(=O)N2CCC(C(N)=O)CC2)C(=O)c2cc(-c3ccc(Cl)cc3)nn21` (stereo not shown) [Compound I-0033], for which the half-maximal inhibitory concentration (IC50) was at least 1000 nM.

As for `C[C@H]1CN(Cc2ccc(C#N)cc2)C(=O)c2cc(-c3ccc(Cl)cc3Br)nn21` [Compound I-0326], the IC50 was at least 1000 nM.

As to `CCCOCC1CN(CC(=O)NCC(C)(C)O)C(=O)c2cc(-c3ccc(Cl)cc3)nn21` (stereo not shown) [Compound I-0252], the IC50 was 10 to 100 nM.

With `CCCCCC1CN(CC(=O)N(C)CC(=O)O)C(=O)c2cc(-c3ccc(Cl)cc3)nn21` (stereo not shown) [Compound I-0043], the half-maximal inhibitory concentration (IC50) is 10 to 100 nM.

In the case of `O=C(O)C1CCN(C(=O)CN2C(=O)c3cc(-c4ccc(Cl)cc4)nn3C3COCC32)CC1` (stereo not shown) [Compound I-0028], the IC50 was at least 1000 nM.

For the molecule `COC(=O)Nc1cc(Cl)ccc1-c1cc2n(n1)[C@@H](C)CN(CC(=O)N(C)CC#N)C2=O` [Compound I-0363], the IC50 fell in the range of 10 to 100 nM.

Turning to `CC(=O)Nc1cc(Cl)cnc1-c1cc2n(n1)[C@@H](C)CN(Cc1ccc(C#N)cc1)C2=O` [Compound I-0337], the IC50 fell in the range of 10 to 100 nM.

The record behind these values is patent US10189843B2, “Fused pyrazole derivative having autotaxin inhibitory activity” (The University of Tokyo, priority 2014, dated 2019).
